Reference: the supplement of paper PMC10307832

Key:
Experiment in all cases: relative viability (nuclei count vs DMSO), 5 days (fraction); higher = more cells survive
[1] = compound: C#Cc1cccc(Nc2ncnc3cc(OCCOC)c(OCCOC)cc23)c1 [Erlotinib] + COc1cc2c(Oc3ccc(NC(=O)C4(C(=O)Nc5ccc(F)cc5)CC4)cc3F)ccnc2cc1OCCCN1CCOCC1 [Foretinib] (partner 0.25 µM)
In short: (§1)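 Relative viability is defined as nuclei in treated wells over nuclei in vehicle wells. Duplicate plates were run and medians reported. Lung cancer cell lines in 1536-well plates were dosed by pin tool one day after seeding, with one drug or with a fixed anchor-drug dose plus five library-drug doses (not always all listed) in √10 steps, and nuclei were counted after 5 days.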

[2] = compound: O=C(Nc1c[nH]nc1-c1nc2ccc(CN3CCOCC3)cc2[nH]1)NC1CC1 [AT9283] + CC(=O)Nc1cccc(-n2c(=O)n(C3CC3)c(=O)c3c(Nc4ccc(I)cc4F)n(C)c(=O)c(C)c32)c1 [Trametinib] (partner 0.02 µM)
In short: as §1

[3] = compound: C#Cc1cccc(Nc2ncnc3cc(OCCOC)c(OCCOC)cc23)c1 [Erlotinib] + CCNC(=O)c1noc(-c2cc(C(C)C)c(O)cc2O)c1-c1ccc(CN2CCOCC2)cc1 [Luminespib] (partner 0.01 µM)
In short: as §1

[4] = compound: O=C(Nc1c[nH]nc1-c1nc2ccc(CN3CCOCC3)cc2[nH]1)NC1CC1 [AT9283] + Cc1nc(NC(=O)N2CCC[C@H]2C(N)=O)sc1-c1ccnc(C(C)(C)C(F)(F)F)c1 [Alpelisib] (partner 2 µM)
In short: as §1

[5] = compound: C#Cc1cccc(Nc2ncnc3cc(OCCOC)c(OCCOC)cc23)c1 [Erlotinib] + Cc1nc(NC(=O)N2CCC[C@H]2C(N)=O)sc1-c1ccnc(C(C)(C)C(F)(F)F)c1 [Alpelisib] (partner 2 µM)
In short: as §1

Cell Line: NCI-H2405
- relative viability ([1]; first compound 0.2 µM): 1.02
- relative viability ([1]; first compound 0.6325 µM): 1.09
- relative viability ([1]; first compound 2 µM): 1.01
- relative viability ([2]; first compound 0.003 µM): 0.737
- relative viability ([2]; first compound 0.03 µM): 0.491
- relative viability ([2]; first compound 0.09487 µM): 0.296
- relative viability ([2]; first compound 0.3 µM): 0.185
- relative viability ([3]; first compound 0.02 µM): 0.6
- relative viability ([3]; first compound 0.2 µM): 0.655
- relative viability ([3]; first compound 0.6325 µM): 0.598
- relative viability ([3]; first compound 2 µM): 0.755
- relative viability ([4]; first compound 0.003 µM): 0.881
- relative viability ([4]; first compound 0.03 µM): 0.551
- relative viability ([4]; first compound 0.09487 µM): 0.236
- relative viability ([4]; first compound 0.3 µM): 0.15
- relative viability ([5]; first compound 0.02 µM): 0.853
- relative viability ([5]; first compound 0.2 µM): 0.772
- relative viability ([5]; first compound 0.6325 µM): 0.822
- relative viability ([5]; first compound 2 µM): 0.698

Cell Line: NCI-H3122
- relative viability ([1]; first compound 0.02 µM): 0.982
- relative viability ([1]; first compound 0.2 µM): 0.989
- relative viability ([1]; first compound 0.6325 µM): 0.963
- relative viability ([1]; first compound 2 µM): 0.884
- relative viability ([2]; first compound 0.003 µM): 0.277
- relative viability ([2]; first compound 0.03 µM): 0.247
- relative viability ([2]; first compound 0.09487 µM): 0.168
- relative viability ([2]; first compound 0.3 µM): 0.097
- relative viability ([3]; first compound 0.02 µM): 0.0866
- relative viability ([3]; first compound 0.2 µM): 0.089
- relative viability ([3]; first compound 0.6325 µM): 0.0884
- relative viability ([3]; first compound 2 µM): 0.107
- relative viability ([4]; first compound 0.003 µM): 0.786
- relative viability ([4]; first compound 0.03 µM): 0.764
- relative viability ([4]; first compound 0.09487 µM): 0.28
- relative viability ([4]; first compound 0.3 µM): 0.227
- relative viability ([5]; first compound 0.2 µM): 0.882
- relative viability ([5]; first compound 0.6325 µM): 0.872
- relative viability ([5]; first compound 2 µM): 0.736

Cell Line: PC-3 [JPC-3]
- relative viability ([1]; first compound 0.02 µM): 0.935
- relative viability ([1]; first compound 0.2 µM): 0.384
- relative viability ([1]; first compound 0.6325 µM): 0.323
- relative viability ([1]; first compound 2 µM): 0.36
- relative viability ([2]; first compound 0.003 µM): 0.718
- relative viability ([2]; first compound 0.03 µM): 0.672
- relative viability ([2]; first compound 0.09487 µM): 0.71
- relative viability ([2]; first compound 0.3 µM): 0.481
- relative viability ([3]; first compound 0.02 µM): 0.64
- relative viability ([3]; first compound 0.2 µM): 0.363
- relative viability ([3]; first compound 0.6325 µM): 0.406
- relative viability ([3]; first compound 2 µM): 0.306
- relative viability ([4]; first compound 0.003 µM): 1.02
- relative viability ([4]; first compound 0.03 µM): 0.997
- relative viability ([4]; first compound 0.09487 µM): 0.621
- relative viability ([4]; first compound 0.3 µM): 0.527
- relative viability ([5]; first compound 0.02 µM): 0.799
- relative viability ([5]; first compound 0.2 µM): 0.368
- relative viability ([5]; first compound 0.6325 µM): 0.352
- relative viability ([5]; first compound 2 µM): 0.323

Cell Line: PC-14
- relative viability ([1]; first compound 0.02 µM): 0.76
- relative viability ([1]; first compound 0.2 µM): 0.23
- relative viability ([1]; first compound 0.6325 µM): 0.199
- relative viability ([1]; first compound 2 µM): 0.153
- relative viability ([2]; first compound 0.003 µM): 0.827
- relative viability ([2]; first compound 0.03 µM): 0.459
- relative viability ([2]; first compound 0.09487 µM): 0.131
- relative viability ([2]; first compound 0.3 µM): 0.0923
- relative viability ([3]; first compound 0.02 µM): 0.154
- relative viability ([3]; first compound 0.2 µM): 0.134
- relative viability ([3]; first compound 0.6325 µM): 0.147
- relative viability ([3]; first compound 2 µM): 0.0981
- relative viability ([4]; first compound 0.003 µM): 0.992
- relative viability ([4]; first compound 0.03 µM): 0.893
- relative viability ([4]; first compound 0.09487 µM): 0.554
- relative viability ([4]; first compound 0.3 µM): 0.1
- relative viability ([5]; first compound 0.02 µM): 0.562
- relative viability ([5]; first compound 0.2 µM): 0.133
- relative viability ([5]; first compound 0.6325 µM): 0.171
- relative viability ([5]; first compound 2 µM): 0.112

Cell Line: RERF-LC-KJ
- relative viability ([1]; first compound 0.02 µM): 0.875
- relative viability ([1]; first compound 0.2 µM): 0.834
- relative viability ([1]; first compound 0.6325 µM): 0.803
- relative viability ([1]; first compound 2 µM): 0.715
- relative viability ([2]; first compound 0.003 µM): 0.877
- relative viability ([2]; first compound 0.03 µM): 0.691
- relative viability ([2]; first compound 0.09487 µM): 0.412
- relative viability ([2]; first compound 0.3 µM): 0.251
- relative viability ([3]; first compound 0.02 µM): 1.32
- relative viability ([3]; first compound 0.2 µM): 0.993
- relative viability ([3]; first compound 0.6325 µM): 1.23
- relative viability ([4]; first compound 0.003 µM): 0.808
- relative viability ([4]; first compound 0.03 µM): 0.738
- relative viability ([4]; first compound 0.09487 µM): 0.441
- relative viability ([4]; first compound 0.3 µM): 0.251
- relative viability ([5]; first compound 0.02 µM): 0.877
- relative viability ([5]; first compound 0.2 µM): 0.666
- relative viability ([5]; first compound 0.6325 µM): 0.613
- relative viability ([5]; first compound 2 µM): 0.469

Cell Line: SK-LU-1
- relative viability ([1]; first compound 0.02 µM): 0.961
- relative viability ([1]; first compound 0.2 µM): 0.975
- relative viability ([1]; first compound 0.6325 µM): 0.997
- relative viability ([1]; first compound 2 µM): 0.699
- relative viability ([2]; first compound 0.003 µM): 0.508
- relative viability ([2]; first compound 0.03 µM): 0.424
- relative viability ([2]; first compound 0.09487 µM): 0.288
- relative viability ([2]; first compound 0.3 µM): 0.279
- relative viability ([3]; first compound 0.02 µM): 0.21
- relative viability ([3]; first compound 0.2 µM): 0.208
- relative viability ([3]; first compound 0.6325 µM): 0.188
- relative viability ([3]; first compound 2 µM): 0.202
- relative viability ([4]; first compound 0.003 µM): 1.2
- relative viability ([4]; first compound 0.03 µM): 0.426
- relative viability ([4]; first compound 0.09487 µM): 0.304
- relative viability ([4]; first compound 0.3 µM): 0.254
- relative viability ([5]; first compound 0.02 µM): 1.36
- relative viability ([5]; first compound 0.2 µM): 1.01
- relative viability ([5]; first compound 0.6325 µM): 0.962
- relative viability ([5]; first compound 2 µM): 0.631

Cell Line: SK-MES-1
- relative viability ([1]; first compound 0.02 µM): 1.03
- relative viability ([1]; first compound 0.2 µM): 0.635
- relative viability ([1]; first compound 2 µM): 0.357
- relative viability ([2]; first compound 0.003 µM): 0.643
- relative viability ([2]; first compound 0.03 µM): 0.594
- relative viability ([2]; first compound 0.09487 µM): 0.541
- relative viability ([2]; first compound 0.3 µM): 0.276
- relative viability ([3]; first compound 0.02 µM): 0.77
- relative viability ([3]; first compound 0.2 µM): 0.453
- relative viability ([3]; first compound 0.6325 µM): 0.486
- relative viability ([3]; first compound 2 µM): 0.461
- relative viability ([4]; first compound 0.003 µM): 0.807
- relative viability ([4]; first compound 0.03 µM): 0.859
- relative viability ([4]; first compound 0.09487 µM): 0.509
- relative viability ([4]; first compound 0.3 µM): 0.173
- relative viability ([5]; first compound 0.02 µM): 0.926
- relative viability ([5]; first compound 0.2 µM): 0.536
- relative viability ([5]; first compound 0.6325 µM): 0.533
- relative viability ([5]; first compound 2 µM): 0.298

Cell Line: SW 1573
- relative viability ([1]; first compound 0.02 µM): 0.886
- relative viability ([1]; first compound 0.2 µM): 0.911
- relative viability ([1]; first compound 0.6325 µM): 0.895
- relative viability ([1]; first compound 2 µM): 0.9
- relative viability ([2]; first compound 0.003 µM): 0.597
- relative viability ([2]; first compound 0.03 µM): 0.174
- relative viability ([2]; first compound 0.09487 µM): 0.17
- relative viability ([2]; first compound 0.3 µM): 0.143
- relative viability ([3]; first compound 0.02 µM): 0.327
- relative viability ([3]; first compound 0.2 µM): 0.217
- relative viability ([3]; first compound 0.6325 µM): 0.214
- relative viability ([3]; first compound 2 µM): 0.183
- relative viability ([4]; first compound 0.003 µM): 0.766
- relative viability ([4]; first compound 0.03 µM): 0.441
- relative viability ([4]; first compound 0.09487 µM): 0.226
- relative viability ([4]; first compound 0.3 µM): 0.249
- relative viability ([5]; first compound 0.02 µM): 0.805
- relative viability ([5]; first compound 0.2 µM): 0.706
- relative viability ([5]; first compound 0.6325 µM): 0.87

Cell Line: UMC-11
- relative viability ([1]; first compound 0.02 µM): 1.04
- relative viability ([1]; first compound 0.2 µM): 0.973
- relative viability ([1]; first compound 0.6325 µM): 1.08
- relative viability ([1]; first compound 2 µM): 1.08
- relative viability ([2]; first compound 0.003 µM): 0.679
- relative viability ([2]; first compound 0.03 µM): 0.134
- relative viability ([2]; first compound 0.09487 µM): 0.126
- relative viability ([2]; first compound 0.3 µM): 0.164
- relative viability ([3]; first compound 0.02 µM): 1.05
- relative viability ([3]; first compound 0.2 µM): 0.93
- relative viability ([3]; first compound 0.6325 µM): 1.32
- relative viability ([3]; first compound 2 µM): 1.11
- relative viability ([4]; first compound 0.003 µM): 1.01
- relative viability ([4]; first compound 0.03 µM): 0.148
- relative viability ([4]; first compound 0.09487 µM): 0.122
- relative viability ([4]; first compound 0.3 µM): 0.146
- relative viability ([5]; first compound 0.02 µM): 0.986
- relative viability ([5]; first compound 0.2 µM): 1.06
- relative viability ([5]; first compound 0.6325 µM): 1.21
- relative viability ([5]; first compound 2 µM): 1.05
